Test results taken from patent US20250059201A1, “CAMPTOTHECIN COMPOUND AND CONJUGATE THEREOF” (priority 2021, published 2025).
“And” between values parts separate entries of the source, which are not always exact repeats. Identical values can stand only once. Like-named read-outs stand apart in the source and are kept apart here.

Legend:
Type in all cases: cell-based
[1] = test system: MDA-MB-231; assay: Proliferation-inhibiting effect on tumor cells (SRB or MTT assay); details: Homo sapiens, MDA-MB-231, 144 h
Description: (§1) For cells growing by adherence, SRB assay was used to detect effect of antibody-drug conjugates or camptothecins on the proliferation of tumor cells in vitro cultured. A certain number of cells in exponential growth phase were inoculated in 96-well cell culture plates, and when the cells grew by adherence overnight, antibody drug conjugates or camptothecins of different concentrations were added into the cells. 144 hours later, the cells were fixed with trichloroacetic acid, and then stained with SRB (prepared in 1% glacial acetic acid at a concentration of 4 mg/mL). 10 mM Tris solution was added into each well to solubilize the bound SRB. OD values at 510 nm were read on a microplate reader.
(§2) Inhibition (%)=([…] of control well−OD value of dosed well)/OD value of control well×100%
(§3) For cells growing in suspension, MTT assay was used to detect effect of antibody-drug conjugates or camptothecins on the proliferation of tumor cells in vitro cultured. A certain number of cells in exponential growth phase were inoculated in 96-well cell culture plates, and when the cells grew in suspension overnight, antibody-drug conjugates or camptothecins of different concentrations were added into the cells. 144 hours later, MTT was added to each well of the plates, and the incubation was continued for 4 hours at 37° C. in a 5% CO2 saturated humidity incubator. Next, 100 μL of SDS-isobutanol-HCl solution was added into each well of the plates, and OD values at 570 nm and 690 nm were read on a microplate reader.
(§4) Half maximal inhibitory concentration (IC50) was calculated from the inhibition (%) at those different concentrations using the software Graphpad Prism 8.0. The experiment was repeated once and the data was expressed as mean±SD.

[2] = test system: MDA-MB-468; assay: as above; details: Homo sapiens, MDA-MB-468, 144 h, read-out: IC50 (nM) Mean ± SD
Description: as §1, §2, §3, §4

[3] = test system: Calu-3; assay: as above; details: Homo sapiens, Calu-3, 144 h
Description: as §1, §2, §3, §4

[4] = test system: BT-20; assay: as above; details: Homo sapiens, BT-20, 144 h
Description: as §1, §2, §3, §4

[5] = test system: BT-474; assay: as above; details: Homo sapiens, BT-474, 144 h
Description: as §1, §2, §3, §4

[6] = test system: BxPC-3; assay: as above; details: Homo sapiens, BXPC-3, 144 h
Description: as §1, §2, §3, §4

[7] = test system: NCI-N87; assay: as above; details: Homo sapiens, NCI-N87, 144 h
Description: as §1, §2, §3, §4

[8] = test system: HT-29; assay: as above; details: Homo sapiens, HT-29, 144 h
Description: as §1, §2, §3, §4

[9] = test system: HT1376; assay: as above; details: Homo sapiens, HT-1376, 144 h
Description: as §1, §2, §3, §4

[10] = test system: Colo 205; assay: as above; details: Homo sapiens, COLO 205, 144 h
Description: as §1, §2, §3, §4

[11] = test system: MCF-7; assay: as above; details: Homo sapiens, MCF7, 144 h
Description: as §1, §2, §3, §4

[12] = test system: MDA-MB-231/TROP2; assay: as above; details: Homo sapiens, MDA-MB-231, 144 h
Description: as §1, §2, §3, §4

[13] = test system: BxPC-3 human pancreatic adenocarcinoma cells; assay: Comparative study of the activity of camptothecins (CCK-8 cell killing)
Description: (§5) KB oral epithelial cancer cells (purchased from: ATCC) were cultured in DMEM medium supplemented with 10% FBS; NCI-N87 human gastric cancer cells (purchased from: ATCC) were cultured in RPMI1640 medium supplemented with 10% FBS; HT29 human colon cancer cells (purchased from: ATCC) were cultured in RPMI1640 medium supplemented with 10% FBS; and BxPC-3 human pancreatic adenocarcinoma cells (purchased from: ATCC) were cultured in RPMI1640 medium supplemented with 10% FBS.
(§6) Using corresponding media described above and in cell plates, the density of KB cells was adjusted to 2×10^4/mL; the density of NCI-N87 cells was adjusted to 5×10^4/mL; the density of HT29 cells was adjusted to 5×10^4/mL, and the cells were plated onto 96-well transparent flat bottom plates, at 100 µL/well, and cultured overnight; and the density of BxPC-3 cells was adjusted to 5×10^4/mL.
(§7) Samples to be detected were diluted to 20 μM with corresponding media, then 5-fold gradient dilution was performed, and 9 concentrations were obtained. A well having cells but with no any sample added was set as the well showing maximum cell growth; and a well having no cells was set as the well of medium background. The diluted samples were added into the cell plates, at 100 μL/well, which were then incubated in a C02 incubator for 96 hours. After the incubation, CCK-8 (purchased from: DOJINDO LABORATORIES) prepared beforehand was added into the plates, at 20 μL/well, and after further 3 hours incubation in the C02 incubator, […] were read on a microplate reader.
(§8) Data obtained was fitted to a four-parameter curve using software Prism7, and equation for calculating maximum killing is: maximum killing (%)=1−(OD450 value of the well showing maximum killing—OD450 value of the well of medium background)/(OD450 value of the well showing maximum cell growth—OD450 value of the cell of medium background)[…].

[14] = test system: NCI-N87 human gastric cancer cells; assay: as above; details: Homo sapiens, NCI-N87, 96 h, read-out: Maximum Killing (%), NCI-N87, killing days 4 days
Description: as §5, §6, §7, §8

[15] = read-out: IC50 (nM) 1st experiment
[16] = read-out: IC50 (nM) 2nd experiment

**Q.** With `CC[C@@]1(O)C(=O)OCc2c1cc1n(c2=O)Cc2c-1nc1ccc(N)c3c1c2C(F)(F)CC3` [Compound 3] as the compound, how does the IC50 [1, 15] read?
**A.** The IC50 was 0.8 nM.

**Q.** What about the IC50 [1, 16] of the same compound?
**A.** Its IC50 is 0.8 nM.

**Q.** What about the IC50 ([1]; read-out: IC50 (nM) Mean ± SD) of the same compound?
**A.** Its IC50 is 0.69 ± 0.15 nM.

**Q.** What about the IC50 [2] of the same compound?
**A.** The IC50 was 0.16 ± 0.01 nM.

**Q.** What about the IC50 [3, 15] of the same compound?
**A.** The IC50 was 0.4 nM.

**Q.** What about the IC50 [3, 16] of the same compound?
**A.** Its IC50 is 0.4 nM.

**Q.** And the IC50 ([3]; read-out: IC50 (nM) Mean ± SD)?
**A.** The IC50 was 0.4 ± 0.02 nM.

**Q.** What about the IC50 [4, 15] of the same compound?
**A.** Its IC50 is 0.5 nM.

**Q.** What about the IC50 [4, 16] of the same compound?
**A.** The IC50 was 0.5 nM.

**Q.** And the IC50 ([4]; read-out: IC50 (nM) Mean ± SD)?
**A.** The IC50 was 0.53 ± 0.01 nM.

**Q.** What about the IC50 [5, 15] of the same compound?
**A.** The IC50 was 2.3 nM.

**Q.** What about the IC50 [5, 16] of the same compound?
**A.** The IC50 was 0.5 nM.

**Q.** What about the IC50 ([5]; read-out: IC50 (nM) Mean ± SD) of the same compound?
**A.** Its IC50 is 1.43 ± 1.25 nM.

**Q.** And the IC50 [6, 15]?
**A.** The IC50 was 0.2 nM.

**Q.** And the IC50 [6, 16]?
**A.** The IC50 was 0.2 nM.

**Q.** What about the IC50 ([6]; read-out: IC50 (nM) Mean ± SD) of the same compound?
**A.** Its IC50 is 0.17 ± 0.01 nM.

**Q.** And the IC50 [7, 15]?
**A.** The IC50 was 0.4 nM.

**Q.** What about the IC50 [7, 16] of the same compound?
**A.** The IC50 was 0.5 nM.

**Q.** What about the IC50 ([7]; read-out: IC50 (nM) Mean ± SD) of the same compound?
**A.** The IC50 was 0.47 ± 0.07 nM.

**Q.** And the IC50 [8, 15]?
**A.** Its IC50 is 0.4 nM.

**Q.** What about the IC50 [8, 16] of the same compound?
**A.** The IC50 was 0.4 nM.

**Q.** What about the IC50 ([8]; read-out: IC50 (nM) Mean ± SD) of the same compound?
**A.** The IC50 was 0.4 ± 0.01 nM.

**Q.** What about the IC50 [9, 15] of the same compound?
**A.** The IC50 was 1 nM.

**Q.** What about the IC50 [9, 16] of the same compound?
**A.** The IC50 was 0.9 nM.

**Q.** What about the IC50 ([9]; read-out: IC50 (nM) Mean ± SD) of the same compound?
**A.** The IC50 was 0.98 ± 0.08 nM.

**Q.** And the IC50 [10, 15]?
**A.** Its IC50 is 0.2 nM.

**Q.** What about the IC50 [10, 16] of the same compound?
**A.** The IC50 was 0.2 nM.

**Q.** What about the IC50 ([10]; read-out: IC50 (nM) Mean ± SD) of the same compound?
**A.** The IC50 was 0.21 ± 0.05 nM.

**Q.** And the IC50 [11, 15]?
**A.** Its IC50 is 0.2 nM.

**Q.** And the IC50 [11, 16]?
**A.** The IC50 was 0.1 nM.

**Q.** And the IC50 ([11]; read-out: IC50 (nM) Mean ± SD)?
**A.** Its IC50 is 0.11 ± 0.08 nM.

**Q.** What about the IC50 [12, 15] of the same compound?
**A.** Its IC50 is 0.1 nM.

**Q.** And the IC50 [12, 16]?
**A.** Its IC50 is 0.1 nM.

**Q.** What about the IC50 ([12]; read-out: IC50 (nM) Mean ± SD) of the same compound?
**A.** The IC50 was 0.06 ± 0.01 nM.

**Q.** What about the EC50 ([13]; BxPC-3, killing days 4 days) of the same compound?
**A.** Its EC50 is 3230 pM and 5820 pM.

**Q.** What about the Emax ([13]; Homo sapiens, BXPC-3, 96 h, read-out: Maximum Killing (%), BxPC-3, killing days 4 days) of the same compound?
**A.** The Emax was 98%.

**Q.** What about the Emax [14] of the same compound?
**A.** The Emax was 92.1%.
